target: hSTING-CTD (Homo sapiens (Human), UniProt Q86WV6); test: Human STING protein FP competition concentration response assay; format: binding; settings: not given
Procedure: A validated STING ligand, such as c-di-GMP, which is labeled with a read-out signal (e.g., a fluorescence signal such as fluorescein), is mixed with STING-CTD (e.g., mouse STING-CTD or human STING-CTD) with or without the presence of a compound of the present application. Changes in the read-out signal are measured (e.g., by fluorescence anisotropy) to determine the binding of the compound to STING-CTD.
Fluorescein labeled c-di-GMP, a validated STING ligand, was mixed with recombinant hSTING-CTD in a homogenous assay format with or without the presence of a compound of the present application (titrated) in PBS in black 384-well plates (10 μL per well). The fluorescence anisotropy was determined on a PerkinElmer EnVisions multi-mode plate reader. The plate can be read immediately after mixing the reagents or after a few hours without change of signals.
• 1) hSTING (Supplier: HDB) • 2) 2′-Fluo-AHC-c-di GMP (BIOLOG #F009) • 3) 2′3′-cGAMP (BIOLOG #C161) • 4) DMXAA (InvivoGen #tlrl-dmx) • 5) DMSO (Sigma, #D5879-100 mL) • 6) 10×PBS(HDB #MCP-020) • 7) Assay plate, 384-well black plate, solid black bottom (Greiner #784076) • 8) Compound dilution intermediate plate, 384 LDV plate (Labcyte #LP-0200) • 9) Liquid handler, ECHO550 (Labcyte) • 10) Liquid handler, Bravo (Aglient) • 11) Reader, Envision (PerkinElmer) • 12) Centrifuge (Eppendorf) • 13) Multichannel Pipette (Raining) • 14) 10 ml Reservoir (Corning) • 15) 15 ml centrifuge tube (Corning) • 16) Adhesive Plate seals (BioRad) Compound Preparation • a) Containers of each compound were centrifuged at 1000 rpm for 5 min. • b) Compounds were dissolved in DMSO at 30 mM. • c) Compounds were sufficiently vortexed, and centrifuged at 1000 rpm for 1 min. • d) 16 uL of the compound solution was transferred into a LDV Compound Plate. • e) 2-fold serial dilutions of the compound solution were made with DMSO, and 14 concentrations were made in the 384-well LDV Compound Plate. • f) The LDV plate was spun at 1000 rpm for 60 sec and sealed with foil (stored at −20° C. if not used immediately). • g) 335 nL of each compound from the LDV Compound Plate was transferred to Assay Plate (ECHO550). Probe Preparation • a) 200 uM probe stock (2′-Fluo-AHC-c-diGMP) was diluted by ddH2O to 6 uM working concentration. • b) 10-12 uL 6 uM working solution of probe was transferred into the LDV plate. • c) 50 nL per well 6 uM working solution of probe was transferred from the LDV plate to each well of the empty Assay Plate (Greiner 784076) by ECHO550 Buffer mode. • d) Probe final concentration was 30 nM when assay system was 10 uL. • e) The Assay Plate was spun at 1000 rpm for 1 min. Compound Addition • a) After the LDV Compound Plate was prepared, 335 nL compound (ECHO550 DMSO mode) was transferred from the LDV Compound Plate into the Assay Plate (Greiner 784076) containing 50 nL probe in each well according to the Assay Plate layout. • b) DMSO final concentration was 3.35% when assay system was 10 uL. • c) The Assay Plate was spun at 1000 rpm for 1 min. Protein Addition • a) Aliquot of hSTING protein was thawed on ice, briefly to generate uniform solution. • b) 55 uM stock protein was diluted in 1×PBS assay buffer to generate 10 uM final solutions. • c) For test compound and ZPE wells, 10 μL per well of 10 uM protein solutions was added into the Assay Plate containing both the probe and test compounds or DMSO using multichannel pipette. • d) For HPE wells, 10 μL/well of 1×PBS assay buffer instead of protein was added into the Assay Plate containing both the probe and DMSO using multichannel pipette. • e) The Assay Plate was spun at 1000 rpm for Imin. • f) The Assay Plate was incubated at r.t. for 10-20 min.
The EnVision plate reader was used to record the FA value of each well immediately after mixing the reagents or after a few hours without change of signals.
The raw data and calculated data (Fluorescence anisotropy (FA)) was exported from the EnVision reader. […]

hSTING-CTD, sequence (Q86WV6 135-379): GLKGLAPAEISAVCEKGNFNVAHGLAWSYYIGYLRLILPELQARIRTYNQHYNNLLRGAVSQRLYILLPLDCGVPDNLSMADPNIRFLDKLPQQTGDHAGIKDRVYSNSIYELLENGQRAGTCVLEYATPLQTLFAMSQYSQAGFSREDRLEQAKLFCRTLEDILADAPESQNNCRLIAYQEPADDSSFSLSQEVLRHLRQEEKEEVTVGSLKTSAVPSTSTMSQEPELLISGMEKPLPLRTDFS

Row | SMILES | IC50 [µM]
1 | Cc1ccc2c(=O)c3cc(-c4ccc(C(C)C)cc4)ccc3n(CC(=O)O)c2c1 [Compound 77] | 100 to 500
2 | O=C(O)Cn1c2ccccc2c(=O)c2cc(CCC3CCCCC3)ccc21 [Compound 40] | < 100
3 | COc1ccccc1CCc1ccc2c(c1)c(=O)c1ccccc1n2CC(=O)O [Compound 42] | 500 to 1000
4 | O=C(O)Cn1c2ccccc2c(=O)c2ccc(Br)c(Cl)c21 [Compound 52] | 100 to 500
5 | O=C(O)Cn1c2ccccc2c(=O)c2ccc(Cl)c(F)c21 [Compound 84] | > 1000
6 | Cc1cc2c(=O)c3ccc(Cl)c(Cl)c3n(CC(=O)O)c2cc1N1CCOCC1 [Compound 63] | 100 to 500
7 | Cc1ccc2c(=O)c3cc(Br)ccc3n(CC(=O)O)c2c1 [Compound 78] | > 1000
8 | Cc1cc2c(=O)c3ccc(Cl)c(Cl)c3n(CC(=O)O)c2cc1N(C)C [Compound 64] | 100 to 500
9 | Cc1cc(Cl)c2c(c1)c(=O)c1ccc(C)cc1n2CC(=O)O [Compound 38] | 500 to 1000
10 | O=C(O)Cn1c2cccc(F)c2c(=O)c2ccc(Cl)c(Cl)c21 [Compound 31] | 500 to 1000

Further lines, results first:

Row | IC50 [µM] | SMILES
11 | 500 to 1000 | CC1(C)c2ccccc2N(CC(=O)O)c2ccc(Br)cc21 [Compound 86]
12 | 100 to 500 | O=C(O)Cn1c2ccc(Br)cc2c(=O)c2ccc(Cl)c(Cl)c21 [Compound 89]
13 | 100 to 500 | COc1ccc2c(=O)c3ccc(Cl)c(Cl)c3n(CC(=O)O)c2c1 [Compound 95]
14 | < 100 | O=C(O)Cn1c2cc(C3=CCCC3)ccc2c(=O)c2ccc(Cl)c(Cl)c21 [Compound 114]

target: STING protein (Homo sapiens (Human), UniProt Q86WV6, H232R); test: Cell based reporter assay of IRF activation (IRF-luciferase), THP1-dual-KI R232; settings: read-out: THP1-dual-KI R232_IRF(Luciferase)_Activity Maximum measured (%)
Sequence (Q86WV6 whole entry H232R): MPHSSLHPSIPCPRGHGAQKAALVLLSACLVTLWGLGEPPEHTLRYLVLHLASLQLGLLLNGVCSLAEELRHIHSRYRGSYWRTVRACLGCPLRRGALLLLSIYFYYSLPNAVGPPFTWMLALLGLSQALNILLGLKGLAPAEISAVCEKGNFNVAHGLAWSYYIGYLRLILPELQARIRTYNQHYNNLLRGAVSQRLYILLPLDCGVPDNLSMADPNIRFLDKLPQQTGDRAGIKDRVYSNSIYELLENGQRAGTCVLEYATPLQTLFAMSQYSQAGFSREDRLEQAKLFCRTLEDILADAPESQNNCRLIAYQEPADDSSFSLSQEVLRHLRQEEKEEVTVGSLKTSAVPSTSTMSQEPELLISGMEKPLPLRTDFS

Row | Emax [%] | SMILES
15 | < 5 | O=C(O)Cn1c2cc(-c3ccc(Cl)cc3)ccc2c(=O)c2ccc(Cl)c(Cl)c21 [Compound 156]
16 | 25 to 50 | COc1c(Cl)ccc2c(=O)c3ccc(Nc4ccc(Cl)cc4)cc3n(CC(=O)O)c12 [Compound 251]

target: hSTING-WT (Homo sapiens (Human), UniProt Q86WV6, H232R); test: Radiometric filtration binding competition assay, hSTING-WT; settings: not given
Sequence (Q86WV6 140-379 H232R): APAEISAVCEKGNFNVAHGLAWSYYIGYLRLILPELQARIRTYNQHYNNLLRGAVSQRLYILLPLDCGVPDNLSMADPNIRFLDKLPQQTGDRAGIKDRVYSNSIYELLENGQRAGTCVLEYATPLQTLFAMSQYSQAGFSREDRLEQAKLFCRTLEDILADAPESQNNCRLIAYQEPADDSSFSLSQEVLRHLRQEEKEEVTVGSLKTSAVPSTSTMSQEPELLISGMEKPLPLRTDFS

Row | IC50 [µM] | SMILES
17 | 100 to 300 | O=C(O)Cn1c2cc(-c3ccc(Cl)cc3)ccc2c(=O)c2ccc(Cl)c(Cl)c21 [Compound 156]
18 | 20 to 100 | COc1c(Cl)ccc2c(=O)c3ccc(Nc4ccc(Cl)cc4)cc3n(CC(=O)O)c12 [Compound 251]

target: mSTING (Mus musculus, UniProt Q3TBT3); test: Radiometric filtration binding competition assay, mSTING; settings: not given

Row | IC50 [µM] | SMILES
19 | < 20 | O=C(O)Cn1c2cc(-c3ccc(Cl)cc3)ccc2c(=O)c2ccc(Cl)c(Cl)c21 [Compound 156]
20 | < 20 | COc1c(Cl)ccc2c(=O)c3ccc(Nc4ccc(Cl)cc4)cc3n(CC(=O)O)c12 [Compound 251]

target: hSTING-R232 (Homo sapiens (Human), UniProt Q86WV6, H232R); test: STING differential scanning fluorimetry (DSF) assay, WT human STING; settings: WT (R232) human STING aa140-379, net shift in melting temperature
Sequence (Q86WV6 140-379 H232R): as above

Row | WT_DSF_hSWAT Tm Shift (° C.) | SMILES
21 | B (“B” = 0-2° C.) | O=C(O)Cn1c2cc(-c3ccc(Cl)cc3)ccc2c(=O)c2ccc(Cl)c(Cl)c21 [Compound 156]
22 | D (“D” > 7° C.) | COc1c(Cl)ccc2c(=O)c3ccc(Nc4ccc(Cl)cc4)cc3n(CC(=O)O)c12 [Compound 251]

target: mSTING-R232 (Mus musculus, UniProt Q3TBT3); test: STING differential scanning fluorimetry (DSF) assay, mouse STING; settings: net shift in melting temperature

Row | MOUSE DSF_6xHIS-SUMO Tm Shift (° C.) | SMILES
23 | C (“C” = 5-15° C.) | O=C(O)Cn1c2cc(-c3ccc(Cl)cc3)ccc2c(=O)c2ccc(Cl)c(Cl)c21 [Compound 156]
24 | D (“D” > 15° C.) | COc1c(Cl)ccc2c(=O)c3ccc(Nc4ccc(Cl)cc4)cc3n(CC(=O)O)c12 [Compound 251]

Reference: patent publication US11414387B2, “Oxoacridinyl acetic acid derivatives and methods of use” (Stingthera, Inc., priority 2017, dated 2022)
